We go through 4 compounds from patent US20240165108A1, “NOVEL USE” (GlaxoSmithKline Intellectual Property Development Limited, priority 2022, published 2024).

For data set [1], the system named is JAK-STAT signaling pathway. As to the kind of experiment: STAT3/STAT5 phosphorylation in dermal papilla cells treated with oncostatin M. Type of data set: cell-based, human. As to the method:
(§1) The downstream effects of recombinant oncostatin M was assessed by evaluating signalling pathways (such as the JAK-STAT pathway previously associated with oncostatin M induced senescence in mouse [Wang 2019, PMID 30930146]) and markers associated with senescence to link specific mediators in the macrophage secretome (like oncostatin M) to disease relevant mechanisms. Dermal papilla cells in culture were treated with recombinant oncostatin M protein from BioLegend. Tofacitinib was received from MedChemExpress as a ready-made 10 mM solution and used at the indicated concentration.
Protein quantification: protein was extracted after lysis with RIPA buffer and quantified by BCA using methods known in the art. Protein was loaded onto a gel and run with NuPage MES SDS running buffer and transferred onto nitrocellulose membrane using the iBlot2 according to manufacturer's instructions and procedures known in the art. The following primary antibodies were used to assess expression of the relative proteins described: Human anti-Total STAT5 antibody, Isotype (Rabbit polyclonal IgG) from Abcam, Human anti-Phospho STAT5 antibody, Isotype (Rabbit polyclonal IgG) from Abcam, Anti-Human total STAT3 (D3Z2G) from Cell Signaling Technologies, Anti-Human pSTAT3 (Y705) (D3A7) from Cell Signaling Technologies and the control antibody, β-Actin (8H10D10) Mouse IgG2b mAb from Cell Signaling Technologies. […]

Data set [2] concerns the target T1, GPR91 (Homo sapiens, UniProt Q9BXA5).
T1 sequence (Q9BXA5 1-334): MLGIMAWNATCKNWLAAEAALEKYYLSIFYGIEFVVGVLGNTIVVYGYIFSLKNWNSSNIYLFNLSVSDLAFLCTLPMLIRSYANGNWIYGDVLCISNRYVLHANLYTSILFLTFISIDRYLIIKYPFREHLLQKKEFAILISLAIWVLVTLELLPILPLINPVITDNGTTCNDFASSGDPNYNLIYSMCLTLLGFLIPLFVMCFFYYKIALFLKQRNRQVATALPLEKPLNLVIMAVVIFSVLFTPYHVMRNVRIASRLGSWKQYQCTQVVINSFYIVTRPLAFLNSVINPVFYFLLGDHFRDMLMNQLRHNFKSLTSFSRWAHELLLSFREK
Put plainly: Calcium flux in HEK293. Type of data set: cell-based. The following applies: read-out: Test compound pIC50, Calcium flux in HEK293 (converted). From the text:
(§2) GPR91 inhibition can be measured according to the art. For example, GPR91 inhibition may be measured by testing a compound in a G-protein functional assay such as Calcium flux, IP1 accumulation and GTPyS. GPR91 inhibition may be measured by testing a compound in phenotypic assays which measures a cytokine response that is relevant to the indication.

Data set [3] deals with T1, GPR91. As to the kind of experiment: IP1 accumulation. Type of data set: cell-based. Further details: host or cells: LUVA. The following applies: read-out: Test compound pIC50, IP1 (converted).
From the text: as §2

The subject of data set [4] is human hair follicles. As to the kind of experiment: Microscopic hair cycle staging in ex vivo hair follicle organ culture. Type of data set: cell-based. From the text: Compounds, at the concentrations indicated, are present throughout the duration of the hair follicle culture at 0.1% DMSO.
Data set [5] concerns the target T1, GPR91. As to the kind of experiment: Succinate-stimulated secretion of PGD2 and cytokines/chemokines in LUVA cells. The class given is cell-based. The following applies: for IC50: compound 1 hr prior to succinate stimulation. Further details: host or cells: LUVA. As for the experimental part:
After the incubation, the cell suspension was centrifuged, and the supernatant was collected for downstream readouts of secreted factors including Prostaglandin D2 (PGD2) by ELISA (Cayman Chemical PGD2 EIA kit), and cytokines/chemokines TNFa, MIP1a and Eotaxin-3 by MSD (Mesoscale V-Plex Plus proinflammatory panel 1, Plus Chemokine Panel 1).
A GPR91 knockout in LUVA cells (received from Kerafast Inc) was generated using CRISPR technology with a single guide following protocols known in the art. The guide RNA sequence used was […] (SEQ ID NO: 4). The guide RNA cut location was chromosome 3: 151,880,674.

For data set [6], the target named is T1, GPR91. Put plainly: GTPyS G-protein functional assay. Type of data set: biochemical. Further details: host or cells: LUVA. The settings on record: read-out: Test compound pIC50, GTPyS (converted).
From the text: as §2

Data set [7] deals with dermal papilla cells. As to the kind of experiment: Beta galactosidase activity (senescence) in dermal papilla. The class given is cell-based, human. As for the experimental part: as §1
Beta Galactosidase Activity: A B-Galactosidase Activity Assay Kit (Fluorescence, Plate-Based) from Cell Signalling Technology #23833 was used to assess cellular senescence. The instructions were followed according to the manufacturer's instructions.

Data set [8] relates to dermal papilla cells. As to the kind of experiment: FGF18 and BMP6 gene expression in dermal papilla cells (RT-qPCR). The class given is cell-based, human. The following applies: oncostatin M 10 ng/ml and 100 ng/ml. As for the experimental part: as §1
Gene expression: mRNA was extracted as previously described in example 1. […] The following Taqman probes were used to identify target specific mRNA transcripts: FGF18 (Assay ID: Hs00826077_m1), and BMP6 (Assay ID: Hs01099594_m1).

The test system of data set [9] is human iPSC derived M2 macrophages. The following applies: succinate present during macrophage polarization.
Description: IPSC precursor cells were differentiated into macrophages using differentiation media known in the art followed by polarisation into M1 and M2 macrophage phenotypes using LPS+IFNg and IL4+IL13 stimulation, respectively.
The TREM2 primer probe set used to determine expression levels was purchased from ThermoFisher (Hs01003898_m1). Relative expression (AU: Arbitrary units) was calculated using 2^−dCT, where dCT is calculated as CT (TREM2)−CT(Housekeeper Gene). In these experiments, the housekeeper gene used was RPLP0 (ribosomal phosphoprotein PO) (Primer Probe purchased from ThermoFisher Assay ID: He00420895_gH).
In data set [10] the test system is human hair follicles. Put plainly: RNA sequencing of ex vivo cultured hair follicles. The class given is cell-based. The following applies: healthy hair follicles after succinate. As for the experimental part: RNA extraction, sequencing and analysis were performed as follows; RNA from n=2-3 hair follicles per group was extracted using […]® PicoPure® RNA Isolation Kit (ThermoFisher) including a Dnase digestions step using the Rnase-Free Dnase Set from Qiagen and stored at −80 degrees Celsius until analysed. RNA concentration, purity and integrity were assessed before sequencing. Sequencing was performed on a NovaSeq 6000 using 2×100 bp read length with an output of approximately 30 M clusters (6 Gb per sample). Demultiplexing of the sequencing reads was performed with Illumina bcl2fastq (2.20).
Briefly, DESeq2 first creates a pseudo-reference sample (row-wise geometric mean) and calculates the ratio of each sample to this reference. Then, the normalization factor for each sample (size factor) is calculated using the median value of all ratios for a given sample. Normalized count values are created by dividing each raw count value in a given sample by that sample's normalization factor. Finally, DESeq2 calculates p values and adjusted p values for genes of two groups by allowing the shrinkage of the log 2 fold changes when the information for a gene is low (low counts or high dispersion values). For manual calculation of fold change (FC) between two groups, the ratio of the normalized read counts was used. And FC is considered relevant or significant if it is greater of equal to 2 (upregulation) or smaller that or equal to 0.5 (downregulation).

Data set [11] concerns dermal papilla cells. As for the experimental part: iPSC were differentiated and polarized to an M2 like macrophage phenotype as previously described. […] Media was collected from the treated iPSC after 48 hours of incubation, which is referred to as conditioned media. The dermal papilla from both male and female donors were plated at 5K cells/well onto a collagen coated E-Plate and analysed using the XCELLIGENCE® platform according to the manufacturer's instructions. The cells are analysed in the machine for 24 hours to determine adherence to the plate and establishment of baseline measurements. After 24 hours, the media is aspirated, and macrophage conditioned media is added to the cells for up to 117 hours and the effects of the GPR91 dependent iPSC secretome on dermal papilla proliferation are analyzed.

In data set [12] the target is T1, GPR91. The following applies: TREM2 expressing M2 macrophages, succinate for 48 hr. As for the experimental part:
Oncostatin M levels were determined by ELISA (Abcam ab215543) according to the manufacturer's instructions.
Oncostatin M levels were determined by ELISA according to the manufacturer's instructions. […] Supernatants were collected and Oncostatin M levels were measured.

Data set [13] concerns human hair follicles. Put plainly: Dermal papilla area and melanin clumping, Fontana-Masson stained ex vivo hair follicles. The settings on record: healthy hair follicles. The class given is cell-based. As to the method:
Microscopic hair cycle staging: Hair cycle staging is performed at the end of the culture and can be determined according to several established parameters as described previously. Hair follicles are microscopically evaluated for the hair cycle staging using Masson-Fontana histochemistry and Ki-67/TUNEL immunostaining as previously described. […] Melanin clumps are indicated on the images by the orange arrows, and are counted in the Masson-fontana stained section at the end of the culture in a defined region of interest starting at the Auber's line and including the precortical hair matrix as described previously.

Data set [14] deals with hair matrix keratinocytes. The following applies: hair follicles from healthy donors. As to the method:
Hair follicle organ cultures ex vivo: Full length hair follicles were micro dissected from scalp skin or FUEs as above.
Quantitative evaluation of hair matrix keratinocyte proliferation and apoptosis is performed in Ki-67/TUNEL stained sections of the hair follicle. The germinative hair matrix keratinocyte proliferation is calculated as the percentage of KI-67 positive nuclei. Intra-follicular apoptosis is analyzed using TUNEL staining (TdT-mediated dUTP-biotin nick end labelling) as described previously.

[15] abbreviates: LUVA cells, succinate 3 hours, MSD.

As for `C[C@@H]1CCN(C(=O)CC#N)C[C@@H]1N(C)c1ncnc2[nH]ccc12` [Tofacitinib, reference compound], the “oncostatin M induced phosphorylation of STAT3 and STAT5” value in [1] (JAK inhibitor co-treatment) was “can be blocked”.

On to `O=C(CCCc1ccc2cccnc2n1)NCc1cc(-c2ccc(F)c(C(F)(F)F)c2)no1` [Compound 2, N-[{3-(3-trifluoromethyl-4-fluorophenyl)isoxazol-5-yl}methyl]-4-([1,8]naphthyridin-2-yl)butyramide], for which the IC50 was 25.1 nM on GPR91 [2]; 7940 nM on GPR91 [3]; 1000 nM at GPR91 [5] (LUVA cells, read-out: Test compound pIC50, MIP-1a (converted)); 63.1 nM on GPR91 [5] (LUVA cells, read-out: Test compound pIC50, PGD2 (converted)); 1260 nM at GPR91 [6]. Besides, in the data set on human hair follicles [4] (donors with healthy hair follicles), the “percentage of hair follicles in the anagen phase” value was “increases the percentage of hair follicles in the anagen phase”.

For the compound “oncostatin M: recombinant oncostatin M protein from BioLegend; cytokine shown to induce hair follicle quiescence in mice”, the “JAK-STAT signaling, phosphorylation of STAT3 and STAT5” value in [1] (recombinant oncostatin M applied to dermal papilla) was “activates the JAK-STAT signaling pathway”. The “senescence, β-galactosidase activity” value in the data set with dermal papilla cells [7] is recorded as “induces senescence”. Moreover, in the data set with dermal papilla cells [8], the “expression of BMP6” value is reported as “downregulates expression of BMP6” and the “expression of FGF18” value was “increases the expression of FGF18”.

As to `O=C([O-])CCC(=O)[O-].[Na+].[Na+]` [Succinate, Sodium succinate], the “percentage of hair follicles in the catagen phase” value in the data set on human hair follicles [4] (GPR91 activation by succinate) is “increases the percentage of hair follicles in the catagen phase”. Moreover, the “toxicity to hair follicles” value in the data set on human hair follicles [4] (at high concentrations) is reported as “highly toxic to hair follicles”. Further, the TREM2 expression result in data set [9] is recorded as “higher levels of expression of TREM2”. Further, in the data set with human hair follicles [10], the “genes related to immune activation (cytokine and chemokine response)” value is “increase in genes related to immune activation”; the “genes that regulate hair follicle pathways and keratins” value is given as “significant downregulation in genes that regulate hair follicle pathways”. On GPR91 [5] (GPR91 knockout LUVA cell line, 3 hr and 72 hour), the “TNFa and MIP-1a response to succinate in GPR91 knockout” value was “lack of response”. Also, on GPR91 [5] (LUVA cells, 3 hr and 72 hour post succinate addition), the “TNFa and MIP-1a response to succinate” value was “robust TNFa and MIP-1a response”. Further, on GPR91 [5] (setting [15]), the “Succinate control pEC50, MIP-1a” value turned out to be 3.4 and the “Succinate control pEC50, TNF-α” value amounted to 4.2. The “Succinate control pEC50, PGD2” value on GPR91 [5] (LUVA cells, succinate 3 hours, PGD2 ELISA) was 3.5. In the data set on dermal papilla cells [11] (3 mM succinate, male and female donors), the “dermal papilla proliferation with conditioned media of succinate treated macrophages” value was “inhibit dermal papilla proliferation”. The “dermal papilla proliferation, succinate by itself” value with dermal papilla cells [11] (direct treatment of dermal papilla cells) is “does not induce any changes in the proliferation of dermal papilla cells”. Besides, the “oncostatin M secretion” value on GPR91 [12] is “secrete higher levels of oncostatin M”. Also, the dermal papilla area entry in the data set on human hair follicles [13] was “decreased size of the dermal papilla area”. Further, the “hair matrix keratinocyte proliferation” value in data set [14] is reported as “reduces hair matrix keratinocyte proliferation”. Moreover, the apoptosis result in [14] (TUNEL) is given as “increases apoptosis”.
